Results from ChEMBL document CHEMBL4420080, “Inhibitors of sox18 protein activity for treating angiogenesis- and/or lymphangiogenesis-related diseases” (2018).
Calls of active or inactive are those of the source. The rule behind the calls is not given here.

Assays:
4T1.2 [1] = experiment: Antitumor activity against mouse 4T1.2 cells implanted in BALB/c mouse assessed as median disease latency time at 25 mg/kg/day for 10 days (Rvb =33 days); format: functional
[2] = Critical micellar concentration of the compound; format: physicochemical
[3] = target: Adenosine receptor A1 (Homo sapiens) (UniProt P30542); experiment: Inhibition of human adenosine A1 receptor at 10 uM relative to control
[4] = target: Adenosine receptor A2a (Homo sapiens) (UniProt P29274); experiment: Inhibition of human adenosine A2A receptor at 10 uM relative to control
[5] = target: Alpha-1A adrenergic receptor (Rattus norvegicus) (UniProt P43140); experiment: Inhibition of rat adrenergic alpha1A receptor at 10 uM relative to control
[6] = target: Beta-2 adrenergic receptor (Homo sapiens) (UniProt P07550); experiment: Inhibition of human adrenergic beta2 receptor at 10 uM relative to control
[7] = target: Histamine H1 receptor (Homo sapiens) (UniProt P35367); experiment: Inhibition of human histamine H1 receptor at 10 uM relative to control
[8] = target: Muscarinic acetylcholine receptor M2 (Homo sapiens) (UniProt P08172); experiment: Inhibition of human muscarinic M2 receptor at 10 uM relative to control
[9] = target: Muscarinic acetylcholine receptor M3 (Homo sapiens) (UniProt P20309); experiment: Inhibition of human muscarinic M3 receptor at 10 uM relative to control
[10] = target: T1, GABA-A receptor; anion channel (Rattus norvegicus) (UniProt O09028+P15431+P18506+P18508+P19969+P20236+P23574+P23576+P28471+P28473+P30191+P62813+P63079+P63138+Q91ZM7+Q9ES14); experiment: Inhibition of rat GABAA channel flunitrazepam binding site at 10 uM relative to control; format: protein-complex assay
[11] = target: T1, GABA-A receptor; anion channel (Rattus norvegicus); experiment: Inhibition of rat GABAA channel muscimol binding site at 10 uM relative to control; format: protein-complex assay
[12] = target: Glutamate NMDA receptor (Rattus norvegicus) (UniProt P35439+Q00959+Q00960+Q00961+Q62645+Q8VHN2+Q9R1M7); experiment: Inhibition of rat NMDA glutamate receptor at 10 uM relative to control; format: protein-complex assay
[13] = target: Acetylcholine receptor subunit alpha (Homo sapiens) (UniProt P02708); experiment: Inhibition of human nAChR alpha1 channel at 10 uM relative to control
[14] = target: Androgen receptor (Homo sapiens) (UniProt P10275); experiment: Inhibition of human androgen receptor at 10 uM relative to control
[15] = target: Estrogen receptor (Homo sapiens) (UniProt P03372); experiment: Inhibition of human ERalpha at 10 uM relative to control
[16] = target: Glucocorticoid receptor (Homo sapiens) (UniProt P04150); experiment: Inhibition of human glucocorticoid receptor at 10 uM relative to control
[17] = target: Thyroid Hormone Receptor (Rattus norvegicus) (UniProt P18113+P63059); experiment: Inhibition of rat thyroid hormone receptor at 10 uM relative to control; format: protein assay
[18] = target: Sigma non-opioid intracellular receptor 1 (Homo sapiens) (UniProt Q99720); experiment: Inhibition of human sigma1 receptor at 10 uM relative to control
[19] = target: Sodium-dependent noradrenaline transporter (Homo sapiens) (UniProt P23975); experiment: Inhibition of human NET at 10 uM relative to control
[20] = target: Protein deacetylase HDAC6 (Homo sapiens) (UniProt Q9UBN7); experiment: Inhibition of human HDAC6 at 10 uM relative to control
[21] = target: NAD-dependent protein deacetylase sirtuin-1 (Homo sapiens) (UniProt Q96EB6); experiment: Inhibition of human Sirtuin1 at 10 uM relative to control
[22] = target: Transcription factor SOX-18 (Homo sapiens, UniProt P35713); experiment: Inhibition of SOX18 in HUVEC assessed as reduction of SOX18-ESR1 interactions incubated for 45 mins by Alpha-screen assay; format: cell-based
[23] = target: Transcription factor SOX-9 (Homo sapiens) (UniProt P48436); experiment: Inhibition of SOX9 in HUVEC assessed as reduction of SOX9-SOX9 interactions up to 200 uM incubated for 45 mins by Alpha-screen assay; format: cell-based
[24] = target: Endothelial transcription factor GATA-2 (Homo sapiens) (UniProt P23769); experiment: Inhibition of GATA2 in HUVEC assessed as reduction of GATA2 transcriptional activity by genome-wide RNA-seq and ChlP-seq analysis; format: cell-based
[25] = target: Transcriptional repressor CTCF (Homo sapiens) (UniProt P49711); experiment: Inhibition of CTCF in HUVEC assessed as reduction of CTCF transcriptional activity by genome-wide RNA-seq and ChlP-seq analysis; format: cell-based
[26] = target: Transcription factor SOX-17 (Homo sapiens) (UniProt Q9H6I2); experiment: Inhibition of SOX17 (unknown origin) expressed in African green monkey COS7 cells assessed as reduction in SOX17 transcriptional activity at; format: cell-based
[27] = target: Transcription factor SOX-9 (Homo sapiens) (UniProt P48436); experiment: Inhibition of SOX9 (unknown origin) expressed in African green monkey COS7 cells assessed as reduction in SOX9 transcriptional activity at; format: cell-based
Danio rerio [28] = experiment: Induction of vascular phenotype changes in zebrafish larvae harboring fli1 a:eGFP,-6.5kdrl:mCherry assessed as induction of posterior cardinal vein enlargement with arteriovenous shunts and incomplete trunk circulation at 1.5 uM dosed starting from 16 hpf; format: functional, organism-based
Danio rerio [29] = experiment: Induction of arterial and venous genes dys-regulation in zebrafish larvae harboring fli1 a:eGFP,-6.5kdrl:mCherry assessed as effect on Ilk1 gene expression at 1.5 uM dosed starting from 16 hpf and measured at 24 and 48 hpf by qRT-PCR analysis; format: functional, organism-based
Danio rerio [30] = experiment: Induction of arterial and venous genes dys-regulation in zebrafish larvae harboring fli1 a:eGFP,-6.5kdrl:mCherry assessed as effect on notch1b gene expression at 1.5 uM dosed starting from 16 hpf and measured at 24 and 48 hpf by qRT-PCR analysis; format: functional, organism-based
4T1.2 [31] = experiment: Antitumor activity against mouse 4T1.2 cells implanted in BALB/c mouse assessed as effect on tumor size at 25 mg/kg/day for 10 days; format: functional, organism-based
4T1.2 [32] = experiment: Antitumor activity against mouse 4T1.2 cells implanted in BALB/c mouse undergoing sham surgery without excising tumor on day 12 assessed as effect on mouse survival at 25 mg/kg/day for 10 days; format: functional, organism-based
4T1.2 [33] = experiment: Inhibition of tumor induced vascular response in mouse 4T1.2 cells implanted BALB/c mouse assessed as reduction in number of endothelial cells in tumor region at 25 mg/kg/day for 10 days by ERG/EMCN-detection based immunofluorescent staining relative to control; format: functional; conditions: 4T1.2, 240 h
4T1.2 [34] = experiment: Inhibition of tumor induced lymphangiogenesis response in mouse 4T1.2 cells implanted BALB/c mouse assessed as reduction in tumor associated lymphatic vessels at 25 mg/kg/day for 10 days by PROX1/podoplanin detection based immunofluorescent staining relative to control; format: functional; conditions: 4T1.2, 240 h
4T1.2 [35] = experiment: Inhibition of tumor induced lymphangiogenesis response in mouse 4T1.2 cells implanted BALB/c mouse assessed as reduction in number of lymphatic endothelial cells at 25 mg/kg/day for 10 days by PROX1/podoplanin detection based immunofluorescent staining relative to control; format: functional; conditions: 4T1.2, 240 h

Chain of Transcription factor SOX-9 (Homo sapiens) (P48436 whole entry): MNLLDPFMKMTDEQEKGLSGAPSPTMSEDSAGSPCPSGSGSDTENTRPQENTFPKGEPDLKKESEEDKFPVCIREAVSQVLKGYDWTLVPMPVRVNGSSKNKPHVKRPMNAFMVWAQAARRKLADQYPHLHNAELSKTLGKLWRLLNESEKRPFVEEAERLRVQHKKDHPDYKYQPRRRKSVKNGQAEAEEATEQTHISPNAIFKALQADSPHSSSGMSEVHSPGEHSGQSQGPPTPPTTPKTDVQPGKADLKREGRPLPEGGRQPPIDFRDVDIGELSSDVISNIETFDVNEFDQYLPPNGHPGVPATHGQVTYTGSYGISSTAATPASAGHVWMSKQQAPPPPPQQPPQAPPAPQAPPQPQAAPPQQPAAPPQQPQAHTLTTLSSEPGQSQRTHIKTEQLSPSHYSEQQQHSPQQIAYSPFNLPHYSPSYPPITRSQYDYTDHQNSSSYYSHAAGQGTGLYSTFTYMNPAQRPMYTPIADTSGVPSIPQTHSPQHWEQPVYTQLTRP
Chain of Estrogen receptor (Homo sapiens) (P03372 whole entry): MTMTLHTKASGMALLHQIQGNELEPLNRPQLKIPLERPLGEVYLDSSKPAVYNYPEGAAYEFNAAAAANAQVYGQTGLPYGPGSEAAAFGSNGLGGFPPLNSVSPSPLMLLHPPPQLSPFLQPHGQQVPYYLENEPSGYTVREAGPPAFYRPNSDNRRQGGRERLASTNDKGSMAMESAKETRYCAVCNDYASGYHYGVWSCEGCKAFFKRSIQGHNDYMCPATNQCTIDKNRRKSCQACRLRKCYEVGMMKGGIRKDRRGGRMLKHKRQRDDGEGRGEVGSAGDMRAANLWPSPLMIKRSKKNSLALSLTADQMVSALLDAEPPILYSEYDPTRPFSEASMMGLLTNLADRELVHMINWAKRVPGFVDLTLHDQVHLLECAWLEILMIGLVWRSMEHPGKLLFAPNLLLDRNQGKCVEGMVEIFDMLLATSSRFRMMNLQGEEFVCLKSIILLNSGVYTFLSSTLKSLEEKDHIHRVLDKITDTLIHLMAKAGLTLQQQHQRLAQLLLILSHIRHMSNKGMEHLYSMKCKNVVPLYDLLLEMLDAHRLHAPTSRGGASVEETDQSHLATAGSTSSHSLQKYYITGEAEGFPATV
Chain of Muscarinic acetylcholine receptor M2 (Homo sapiens) (P08172 whole entry): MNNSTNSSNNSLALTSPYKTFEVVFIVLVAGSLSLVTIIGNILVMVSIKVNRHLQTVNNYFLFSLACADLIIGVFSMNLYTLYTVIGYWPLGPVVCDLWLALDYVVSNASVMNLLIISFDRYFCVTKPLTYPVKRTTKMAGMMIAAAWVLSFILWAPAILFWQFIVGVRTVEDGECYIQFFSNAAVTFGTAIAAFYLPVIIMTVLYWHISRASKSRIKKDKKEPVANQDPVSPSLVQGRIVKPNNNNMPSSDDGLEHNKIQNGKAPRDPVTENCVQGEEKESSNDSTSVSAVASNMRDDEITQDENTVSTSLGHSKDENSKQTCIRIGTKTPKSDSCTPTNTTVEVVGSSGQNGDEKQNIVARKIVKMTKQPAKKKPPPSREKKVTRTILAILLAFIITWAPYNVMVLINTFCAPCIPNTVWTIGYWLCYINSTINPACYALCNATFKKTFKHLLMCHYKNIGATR
Chain of Thyroid Hormone Receptor (Rattus norvegicus) (P18113 whole entry, looked up): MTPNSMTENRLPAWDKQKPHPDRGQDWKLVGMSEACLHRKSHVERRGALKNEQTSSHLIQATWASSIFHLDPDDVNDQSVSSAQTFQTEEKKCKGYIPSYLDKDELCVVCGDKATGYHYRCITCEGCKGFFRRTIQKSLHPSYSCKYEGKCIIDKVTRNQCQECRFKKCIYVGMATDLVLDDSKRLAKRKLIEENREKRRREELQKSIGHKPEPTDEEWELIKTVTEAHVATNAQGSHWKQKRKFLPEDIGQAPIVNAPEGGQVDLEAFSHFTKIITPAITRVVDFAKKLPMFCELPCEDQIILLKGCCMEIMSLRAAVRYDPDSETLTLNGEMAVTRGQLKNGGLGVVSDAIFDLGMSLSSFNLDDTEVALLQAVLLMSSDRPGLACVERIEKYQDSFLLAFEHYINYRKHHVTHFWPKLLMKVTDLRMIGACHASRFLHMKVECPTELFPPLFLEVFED
Chain of Thyroid Hormone Receptor (Rattus norvegicus) (P63059 whole entry, looked up): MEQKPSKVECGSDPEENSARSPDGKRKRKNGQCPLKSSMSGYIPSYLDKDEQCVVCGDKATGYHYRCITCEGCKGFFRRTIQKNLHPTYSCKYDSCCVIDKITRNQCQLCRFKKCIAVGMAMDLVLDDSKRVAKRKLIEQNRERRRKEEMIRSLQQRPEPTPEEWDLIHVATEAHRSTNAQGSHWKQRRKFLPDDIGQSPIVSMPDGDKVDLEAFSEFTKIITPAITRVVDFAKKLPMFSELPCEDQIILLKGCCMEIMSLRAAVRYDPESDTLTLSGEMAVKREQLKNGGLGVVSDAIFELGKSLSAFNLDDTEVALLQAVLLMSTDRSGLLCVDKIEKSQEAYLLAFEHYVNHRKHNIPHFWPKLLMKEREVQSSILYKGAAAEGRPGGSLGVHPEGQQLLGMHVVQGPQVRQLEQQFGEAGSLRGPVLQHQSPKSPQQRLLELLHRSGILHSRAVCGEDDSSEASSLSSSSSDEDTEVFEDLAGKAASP
Chain of Sigma non-opioid intracellular receptor 1 (Homo sapiens) (Q99720 whole entry): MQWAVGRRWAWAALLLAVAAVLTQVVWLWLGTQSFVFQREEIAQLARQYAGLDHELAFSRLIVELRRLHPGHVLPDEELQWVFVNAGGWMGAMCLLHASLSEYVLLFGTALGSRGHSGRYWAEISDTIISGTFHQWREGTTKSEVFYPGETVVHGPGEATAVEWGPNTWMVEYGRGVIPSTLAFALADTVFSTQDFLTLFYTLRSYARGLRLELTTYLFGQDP
Chain of Androgen receptor (Homo sapiens) (P10275 whole entry): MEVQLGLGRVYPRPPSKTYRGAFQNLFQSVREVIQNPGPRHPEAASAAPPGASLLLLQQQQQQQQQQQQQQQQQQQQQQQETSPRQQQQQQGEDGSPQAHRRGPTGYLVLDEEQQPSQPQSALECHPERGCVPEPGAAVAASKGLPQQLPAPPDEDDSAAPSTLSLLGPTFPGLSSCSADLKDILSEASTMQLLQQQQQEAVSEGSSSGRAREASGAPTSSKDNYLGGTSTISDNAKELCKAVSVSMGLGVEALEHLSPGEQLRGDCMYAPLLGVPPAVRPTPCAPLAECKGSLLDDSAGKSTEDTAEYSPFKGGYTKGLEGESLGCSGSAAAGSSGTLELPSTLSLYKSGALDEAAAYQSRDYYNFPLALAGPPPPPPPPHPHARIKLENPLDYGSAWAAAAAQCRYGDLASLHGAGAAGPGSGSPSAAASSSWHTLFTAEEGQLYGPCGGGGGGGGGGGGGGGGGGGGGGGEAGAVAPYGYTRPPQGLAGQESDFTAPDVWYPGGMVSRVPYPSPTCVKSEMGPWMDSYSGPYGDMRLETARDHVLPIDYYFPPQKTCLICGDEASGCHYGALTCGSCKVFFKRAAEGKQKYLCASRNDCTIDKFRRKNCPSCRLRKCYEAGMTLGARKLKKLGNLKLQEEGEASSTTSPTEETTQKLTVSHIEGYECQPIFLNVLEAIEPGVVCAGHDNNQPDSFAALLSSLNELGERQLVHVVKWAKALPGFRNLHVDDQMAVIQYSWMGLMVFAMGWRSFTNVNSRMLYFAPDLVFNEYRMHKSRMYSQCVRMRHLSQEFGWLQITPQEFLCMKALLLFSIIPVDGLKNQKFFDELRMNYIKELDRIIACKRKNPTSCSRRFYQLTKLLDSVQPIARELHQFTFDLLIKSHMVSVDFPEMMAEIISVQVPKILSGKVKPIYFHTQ
Chain of Beta-2 adrenergic receptor (Homo sapiens) (P07550 whole entry, looked up): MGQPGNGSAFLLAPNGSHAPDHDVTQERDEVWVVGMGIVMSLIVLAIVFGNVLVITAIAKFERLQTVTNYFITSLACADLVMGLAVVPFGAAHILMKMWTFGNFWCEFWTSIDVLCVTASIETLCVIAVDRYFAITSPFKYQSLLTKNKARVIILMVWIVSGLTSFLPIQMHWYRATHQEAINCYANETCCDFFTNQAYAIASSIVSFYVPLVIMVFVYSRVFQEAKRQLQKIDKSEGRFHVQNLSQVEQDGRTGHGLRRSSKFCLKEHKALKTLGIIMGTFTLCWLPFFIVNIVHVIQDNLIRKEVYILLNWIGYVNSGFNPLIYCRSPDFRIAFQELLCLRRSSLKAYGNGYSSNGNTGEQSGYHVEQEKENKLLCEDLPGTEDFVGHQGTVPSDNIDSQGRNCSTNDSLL
Chain of Endothelial transcription factor GATA-2 (Homo sapiens) (P23769 whole entry): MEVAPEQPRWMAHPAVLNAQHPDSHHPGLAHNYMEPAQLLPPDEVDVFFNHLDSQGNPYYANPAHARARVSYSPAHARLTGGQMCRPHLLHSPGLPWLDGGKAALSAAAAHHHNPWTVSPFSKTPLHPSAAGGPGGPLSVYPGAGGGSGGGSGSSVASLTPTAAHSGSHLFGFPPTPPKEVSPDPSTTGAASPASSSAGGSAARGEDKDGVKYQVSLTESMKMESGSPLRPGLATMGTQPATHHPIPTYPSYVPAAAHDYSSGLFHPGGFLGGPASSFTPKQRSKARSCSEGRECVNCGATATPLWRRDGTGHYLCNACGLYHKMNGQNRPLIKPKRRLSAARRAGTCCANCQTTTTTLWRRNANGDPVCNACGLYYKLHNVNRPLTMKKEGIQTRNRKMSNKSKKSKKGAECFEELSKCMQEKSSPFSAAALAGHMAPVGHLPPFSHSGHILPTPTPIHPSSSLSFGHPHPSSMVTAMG
Chain of Transcription factor SOX-18 (P35713 whole entry): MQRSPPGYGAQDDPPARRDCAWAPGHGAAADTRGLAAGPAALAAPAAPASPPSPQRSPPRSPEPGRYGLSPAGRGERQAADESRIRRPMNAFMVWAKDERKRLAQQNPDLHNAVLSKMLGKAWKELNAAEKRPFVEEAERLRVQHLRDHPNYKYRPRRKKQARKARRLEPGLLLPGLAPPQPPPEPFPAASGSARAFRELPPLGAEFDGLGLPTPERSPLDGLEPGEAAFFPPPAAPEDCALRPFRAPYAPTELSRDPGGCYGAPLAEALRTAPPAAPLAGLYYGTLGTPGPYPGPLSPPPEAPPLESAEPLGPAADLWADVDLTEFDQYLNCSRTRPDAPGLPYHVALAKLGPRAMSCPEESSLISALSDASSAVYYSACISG

CMC [2]: > 1000 µM
inhibition [3]: -8%
inhibition [4]: 30%
inhibition [5]: 0%
inhibition [6]: 2%
inhibition [7]: 2%
inhibition [8]: 13%
inhibition [9]: 8%
inhibition [10]: -6%
inhibition [11]: 6%
inhibition [12]: -5%
inhibition [13]: -4%
inhibition [14]: 1%
inhibition [15]: -10%
inhibition [16]: 12%
inhibition [17]: 36%
inhibition [18]: -6%
inhibition [19]: 34%
inhibition [20]: 1.1%
inhibition [21]: 0%
IC50 [22]: Not Active
inhibition [23]: inactive
inhibition [24]: inactive
inhibition [25]: inactive
inhibition [26]: inactive
inhibition [27]: inactive
Compound: O=C(O)c1c(O)cccc1CCc1ccc2ccccc2c1
Time (4T1.2 [1]): 33 days
Activity (Danio rerio [28]): Active
Activity (Danio rerio [29]): Active
Activity (Danio rerio [30]): Active
Activity (4T1.2 [31]): inactive
Activity (4T1.2 [32]): inactive
inhibition in vivo at 25 mg/kg/day (4T1.2 [33]): 48%
inhibition in vivo at 25 mg/kg/day (4T1.2 [34]): 65%
inhibition in vivo at 25 mg/kg/day (4T1.2 [35]): 70%
